From patent publication US12365651B2, “Use of pirfenidone and derivatives for modulation of B lymphocyte activity and organ protection from acute tissue damage” (Washington University, priority 2017, dated 2025)

System: peritoneal derived inflammatory cells (PDICs)
Assay: CD86 on CD19+ cells in cultured peritoneal derived inflammatory cells (PDICs), wild type
Format: cell-based, mouse
Settings: for number of CD19+ CD86high lymphocytes: 24 h, p<0.001
Procedure: Peritoneal derived inflammatory cells (PDICs) were harvested from the peritoneal cavity of thioglycolate-stimulated wild-type and TIRAP−/− deficient mice. PDIC cultures contain an admixture of inflammatory cells, including CD19+ B cells (40). TIRAP deficient mice were a gift from Dr. Ruslan Medzhitov (Yale University, New Haven, CT). PDICs were harvested on day 4 after i.p. injection of 1 ml of thioglycolate medium (Millipore, Billerica, MA, USA). Mice were euthanized, and the peritoneal cavity was washed 3-4 times with 3 mLs of Dulbecco's modified medium containing 10% fetal calf serum. A 3 mL syringe with an 18-gauge needle was used to inject the peritoneal cavity and retrieve the medium containing PDICs. Harvested cells were centrifuged at 250 g for 5 minutes, re-suspended in 5 mL of media and then filtered through a 40 μm strainer. Cells were plated at ˜1.5 million cells/mL in 12 or 24 well plates. Primary splenic derived B lymphocytes were isolated with the MagniSort Mouse B cell Enrichment Kit (Invitrogen, Carlsbad, CA, USA) according to manufacturer's instruction and plated in 96 well plates at 1 million cells/ml. The purity of isolated B cells was checked by flow cytometry and was >85% in all reported experiments. Both PDICs and primary B lymphocytes were cultured in DMEM with 10% FCS, 1 mM sodium pyruvate, penicillin/streptomycin (GIBCO, 1×), 2 mM L-Glutamine, 10 mM Hepes and 55 μM 2-Mercaptoethanol.
We used LPS-EB ultrapure lipopolysaccharide (InvivoGen, San Diego, CA, USA) or necrotic cell extracts (NCEs) to stimulate the cell cultures. For stimulation with LPS, LPS was added at 100 ng/mL at the time of plating. NCEs were prepared from H9c2 cells, in a similar manner to the protocol described for mouse heart and mouse liver extracts (18). For stimulation, NCEs were added at a final concentration of 10 μg/mL at the time the cells were plated. LPS and NCE stimulation were performed in the presence and absence of Pirfenidone for 24 hours. […]

## Cc1ccc(=O)n(-c2ccccc2)c1 [Pirfenidone, 5 methyl-1-phenyl-2-[H] pyridone]
B lymphocytes from the peritoneum, 24 hours, LPS + 0.5% pirfenidone
  LPS induced expression of CD86 on B cells: significantly reduced
PDICs stimulated with LPS
  number of CD19+ CD86high lymphocytes: significantly attenuated
PDICs stimulated with cytosolic extracts from necrotic cells
  number of CD19+ CD86high lymphocytes: significantly attenuated
